The values below come from ChEMBL document CHEMBL5338745, “Factor XIa Inhibitors in Anticoagulation Therapy: Recent Advances and Perspectives” (J Med Chem, 2023).

Where only a bound is given, the exact number is not on record here.

For data set [1], the target named is T1, Coagulation factor XI (Homo sapiens, UniProt P03951). Kind of data set: Inhibition of FXIa (unknown origin).
The target in data set [2] is T2, Plasma kallikrein (Homo sapiens, UniProt P03952).
Data set [3] is described as follows: Clearance in rat. To be noted: in vivo. It is filed as ADME.
Data set [4] in a line: Half life in rat. It is filed as ADME. To be noted: in vivo.
A short description of data set [5]: Solubility of the compound. It is filed as physicochemical.
Data set [6] relates to Plasma. Kind of data set: Anticoagulant activity in human plasma assessed as concentration required to double the activated partial thromboplastin time. It is filed as functional.
The nature of data set [7]: Half life in cynomolgus monkey at 1 mg/kg, iv. It is filed as ADME, organism-based, Macaca fascicularis. To be noted: in vivo.
A short description of data set [8]: Oral bioavailability in cynomolgus monkey at 10 mg/kg, […]. It counts as ADME, organism-based, Macaca fascicularis. The following applies: in vivo.
A short description of data set [9]: Clearance in cynomolgus monkey at 1 mg/kg, iv. It is filed as ADME, organism-based, Macaca fascicularis. To be noted: in vivo.
In data set [10] the target is T1, Coagulation factor XI. Put plainly: Binding affinity to FXIa (unknown origin) assessed as inhibition constant.
For data set [11], the target named is T2, Plasma kallikrein. Put plainly: Binding affinity to PKal (unknown origin) assessed as inhibition constant.
Data set [12] has as its system Plasma. Kind of data set: Anticoagulant activity in human plasma assessed as concentration required to 1.5 times activation of partial thromboplastin time. It counts as functional.
Data set [13] has as its target T1, Coagulation factor XI. Kind of data set: Inhibition of FXIa (unknown origin) relative to control. The following applies: concentration not given here.
Data set [14] can be described thus: Oral bioavailability in Sprague-Dawley rat at 3 mg/kg. The following applies: in vivo. It is filed as ADME, organism-based.
Data set [15] is described as follows: Clearance in Sprague-Dawley rat at 0.5 mg/kg, iv. It is filed as ADME, organism-based. To be noted: in vivo.
Data set [16] in a line: Half life in Sprague-Dawley rat at 0.5 mg/kg, iv. It counts as ADME, organism-based. The following applies: in vivo.
Data set [17] can be described thus: Oral bioavailability in mouse. It is filed as ADME, organism-based. The following applies: in vivo.
A short description of data set [18]: Selectivity index, ratio IC50 for FXIa (unknown origin) to IC50 for FD (unknown origin).
In a further data set the target is Complement factor D (Homo sapiens, UniProt P00746). Put plainly: Inhibition of FD (unknown origin).
Complement factor D, sequence (P00746 whole entry): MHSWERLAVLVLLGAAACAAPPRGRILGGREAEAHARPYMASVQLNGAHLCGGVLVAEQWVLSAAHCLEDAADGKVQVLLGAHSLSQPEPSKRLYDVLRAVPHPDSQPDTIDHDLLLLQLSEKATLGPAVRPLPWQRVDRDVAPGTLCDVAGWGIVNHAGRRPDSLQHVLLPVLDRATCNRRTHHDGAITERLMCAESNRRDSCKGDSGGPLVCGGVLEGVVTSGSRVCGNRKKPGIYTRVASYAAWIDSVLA
Data set [19] is described as follows: Clearance in mouse. It counts as ADME, organism-based. To be noted: in vivo.
Data set [20] is described as follows: Half life in mouse. To be noted: in vivo. It is filed as ADME, organism-based.
The test system of data set [21] is Plasma. Put plainly: Anticoagulant activity in human plasma assessed as concentration required to double the prothrombin time. It is filed as functional.
Data set [22] can be described thus: Oral bioavailability in Sprague-Dawley rat at 2 mg/kg by LC-MS/MS analysis. The following applies: in vivo. It counts as ADME, organism-based.
Data set [23] is described as follows: Half life in Sprague-Dawley rat at 1 mg/kg, iv by LC-MS/MS analysis. It counts as ADME, organism-based. The following applies: in vivo.
The target of the next data set is Trypsin (Homo sapiens, UniProt P07477+P07478+P35030). Kind of data set: Inhibition of human trypsin. It counts as protein assay.
Another data set has as its target Prothrombin (Homo sapiens, UniProt P00734). Kind of data set: Inhibition of human thrombin.
The target of data set [24] is T1, Coagulation factor XI. Kind of data set: Inhibition of human FXIa.
Data set [25] is described as follows: Half life in human at 0.6 mg/kg, iv administered for 5 days. It counts as ADME, organism-based. To be noted: in vivo, time 5 day.
The nature of data set [26]: MRT in iv dosed rat measured upto 8 hrs by LC-MS/MS analysis. It is filed as ADME, organism-based. To be noted: in vivo.
Data set [27] is described as follows: in vivo. To be noted: rat, iv, 0.3 mg/kg.
Data set [28] in a line: in vivo. The following applies: rhesus monkey, iv, 3 mg/kg.

T1 sequence (P03951 19-387 limits assumed): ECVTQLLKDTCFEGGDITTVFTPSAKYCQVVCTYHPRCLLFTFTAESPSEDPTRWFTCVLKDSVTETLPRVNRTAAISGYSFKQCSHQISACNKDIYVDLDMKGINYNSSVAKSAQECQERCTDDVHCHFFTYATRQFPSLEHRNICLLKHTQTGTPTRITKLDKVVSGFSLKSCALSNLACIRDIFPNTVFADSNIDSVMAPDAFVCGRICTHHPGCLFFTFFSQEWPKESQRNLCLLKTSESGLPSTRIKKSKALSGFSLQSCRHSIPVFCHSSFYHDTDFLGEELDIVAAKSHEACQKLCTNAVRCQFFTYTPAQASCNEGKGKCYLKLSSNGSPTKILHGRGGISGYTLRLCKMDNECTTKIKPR
T1 sequence (P03951 388-625 limits assumed): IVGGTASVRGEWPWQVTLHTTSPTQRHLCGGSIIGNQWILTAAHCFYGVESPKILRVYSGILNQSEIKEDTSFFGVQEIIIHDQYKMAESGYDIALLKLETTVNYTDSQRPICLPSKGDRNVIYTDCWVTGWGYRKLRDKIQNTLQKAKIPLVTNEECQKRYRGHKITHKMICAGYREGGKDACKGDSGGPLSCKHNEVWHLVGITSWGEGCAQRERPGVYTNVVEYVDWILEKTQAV
T2 sequence (P03952 20-390 limits assumed): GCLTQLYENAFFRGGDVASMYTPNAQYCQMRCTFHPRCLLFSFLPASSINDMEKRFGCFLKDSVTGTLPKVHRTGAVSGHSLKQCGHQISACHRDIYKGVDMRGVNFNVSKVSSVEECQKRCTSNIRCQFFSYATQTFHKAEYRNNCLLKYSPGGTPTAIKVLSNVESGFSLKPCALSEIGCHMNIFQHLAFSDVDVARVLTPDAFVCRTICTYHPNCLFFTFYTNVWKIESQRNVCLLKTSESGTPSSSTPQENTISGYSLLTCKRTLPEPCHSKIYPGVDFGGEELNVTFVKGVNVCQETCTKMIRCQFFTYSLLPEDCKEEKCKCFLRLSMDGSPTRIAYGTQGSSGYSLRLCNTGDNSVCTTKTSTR
T2 sequence (P03952 391-638 limits assumed): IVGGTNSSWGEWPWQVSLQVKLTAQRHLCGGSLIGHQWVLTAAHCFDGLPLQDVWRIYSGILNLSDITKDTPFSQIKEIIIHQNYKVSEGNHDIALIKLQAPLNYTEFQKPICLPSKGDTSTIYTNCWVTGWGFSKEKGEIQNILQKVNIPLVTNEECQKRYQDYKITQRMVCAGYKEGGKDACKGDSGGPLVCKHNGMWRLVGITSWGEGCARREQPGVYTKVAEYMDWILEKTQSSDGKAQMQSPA

In general, IC50 refers to the midpoint of a concentration-inhibition curve. Compound `O=C(O)c1ccc(NC(=O)[C@H](Cc2ccccc2)N2CCC(c3cc(Cl)ccc3-n3cc(Cl)nn3)=CC2=O)cc1` had an IC50 at Coagulation factor XI [1] of 1.73 nM.

`Nc1ccc(-c2cnc(Cn3c4c(c(-c5cc(Cl)ccc5-n5cnnn5)cc3=O)OCC4)[nH]2)c(F)n1` returned a half-maximal inhibitory concentration (IC50) on Coagulation factor XI [1] of 1.6 nM.

Consider `O=C(O)c1ccc(NC(=O)[C@H](Cc2ccccc2)n2cnc(-c3cc(Cl)ccc3-n3cc(Cl)nn3)cc2=O)cc1`, for which the results for the IC50 against Coagulation factor XI [1] and at Plasma kallikrein [2] were 2.5 nM and 189 nM, respectively.

In general, clearance refers to the volume of plasma or blood freed of the substance per unit of time. For orientation: half-life means the time in which the quantity being followed falls by half. The term solubility denotes the concentration that dissolves in the medium under given conditions. In data set [3], `O=C(/C=C/c1cc(Cl)ccc1-n1cnnn1)N[C@@H](CC(=O)N1CCN(c2ccccc2)CC1)C(=O)Nc1ccc(C(=O)O)cc1` showed a clearance of 9.2 mL/min/kg. Further, the IC50 was 7.1 nM on Coagulation factor XI [1] and over 14000 nM at Plasma kallikrein [2]. Also, in data set [4], the half-life is 1.26 h. In data set [5], this compound yielded a solubility of over 5200 µg/mL.

The term bioavailability denotes dose-corrected exposure relative to a reference, in per cent. In turn, `[2H]C([2H])([2H])n1ncc2c1-c1ccnc(c1)[C@@H](c1coc(-c3cc(Cl)ccc3-n3cc(Cl)nn3)cc1=O)CCC[C@@H](C)C(=O)N2` showed an IC50 against Coagulation factor XI [1] of 6.1 nM. For the same compound, the EC in the data set on Plasma [6] amounted to 2.7 µM. In [7], this compound had a half-life of 1.05 h. Further, the bioavailability in data set [8] came out at 36.8%. For the same compound, in data set [9], the clearance is 8.6 mL/min/kg.

In general, Ki refers to a dissociation constant, usually derived from enzyme kinetics or from competition with a known ligand. Turning to `COC(=O)NCC[C@@H]1Cc2cccc(c2)[C@@H](n2cnc(-c3cc(Cl)ccc3-n3cc(C(F)(F)F)cn3)cc2=O)CCC[C@@H](C)C(=O)N1`, the Ki on Coagulation factor XI [10] was determined as 5 nM; at Plasma kallikrein [11] it was 1790 nM.

Consider `C[C@@H]1CCC[C@H](n2cnc(-c3cc(Cl)ccc3-n3cc(Cl)nn3)cc2=O)c2cc(ccn2)-c2c(cnn2C(F)F)NC1=O` [MILVEXIAN], for which the EC with Plasma [12] stood at 0.5 µM.

By inhibition is commonly meant the share of the control response that was lost under treatment. Regarding `Cc1ccc(C(=O)Nc2ccc(CP(=O)(O)O)cc2CP(=O)(O)O)cc1NC(=O)c1cccc(NC(=O)Nc2cccc(C(=O)Nc3cc(C(=O)Nc4ccc(CP(=O)(O)O)cc4CP(=O)(O)O)ccc3C)c2)c1`, the inhibition at Coagulation factor XI [13] came out at 68%.

For the compound `C[C@@H]1CCC[C@H](c2ccc(-c3cc(Cl)ccc3-n3cc(Cl)nn3)oc2=O)c2cc(ccn2)-c2c(cnn2C(F)F)NC1=O`, the IC50 against Coagulation factor XI [1] worked out at 3.9 nM. The EC with Plasma [6] was 0.87 µM. The compound further gave a bioavailability in data set [14] of 37.1%. The compound further registered a clearance in [15] of 5.65 mL/min/kg. This compound had a half-life in data set [16] of 1 h.

Turning to `CC(C)c1cc(-c2ccc3c(c2)[C@H](N)CO3)cc([C@@H](O)CN2CCc3cccc(C(=O)O)c32)c1`, the figures for the IC50 against Coagulation factor XI [1], on Plasma kallikrein [2] and on Complement factor D were 0.4 nM, 1 nM and over 5000 nM, respectively. Moreover, the EC was found to be 1.3 µM in the data set on Plasma [6] and 28.7 µM with Plasma [21]. For the same compound, the bioavailability in data set [17] came to 100%. Besides, the Ratio IC50 in [18] was 10000. In [19], this compound registered a clearance of 11 mL/min/kg. The compound also gave a half-life in data set [20] of 3.73 h.

The compound `Nc1ccc(-c2nc(F)c([C@@H]3[C@H]4C[C@H]4c4cc(-c5cc(Cl)ccc5-n5cnnn5)cc(=O)n43)[nH]2)c(F)n1` showed an IC50 against Coagulation factor XI [1] of 3.3 nM. Besides, in [22], the bioavailability was 25.3%. In [23], this compound gave a half-life of 1.6 h.

Take `CC(C)c1cc(CCN2CCc3cccc(C(=O)O)c32)cc(-c2ccc3c(c2)[C@H](N)CO3)c1`: the Ratio IC50 in [18] was determined as 700. For the same compound, the half-life in [20] was 9 h.

With `C[C@@H](NC(=O)N1C(=O)[C@H](Cc2ccnc(N)c2)[C@H]1C(=O)O)C1CCCCC1` [FRUNEXIAN], the IC50 was over 4800 nM on Trypsin, over 20000 nM against Prothrombin and 7.1 nM against Coagulation factor XI [24]. This compound also displayed a half-life in [25] of 0.75 h.

What is called MRT is the average time that molecules of a dose stay in the body. In the case of `COC(=O)Nc1ccc2c(c1)NC(=O)[C@H](C)CCC[C@H](c1ccc(-c3cc(Cl)ccc3-n3cc(C(F)(F)F)cn3)c[n+]1[O-])c1nc-2c(C)[nH]1`, the results for the IC50 on Coagulation factor XI [1] and against Plasma kallikrein [2] were 0.9 nM and 42 nM, respectively. This compound also gave an MRT in data set [26] of 11 h.

Consider `CC[C@@H](C(=O)Nc1ccc(C(N)=O)c(F)c1)n1cc(OC)c(-c2cc(Cl)ccc2-n2cc(Cl)nn2)cc1=O`, for which the clearance in the data set “in vivo [27]” was 13.3 mL/min/kg; in “in vivo [28]” it was 5.5 mL/min/kg.

`O=C(O)c1ccc(NC(=O)[C@H](CC2=CC=CCC2)n2ccc(-c3cc(Cl)ccc3-n3cnnn3)cc2=O)cc1` had an inhibitory constant (Ki) at Coagulation factor XI [1] of 6 nM.
